Results reported in patent US8058242B2, “Chimeric proteins with natriuretic activity” (The University of Queensland, priority 2004, dated 2011).
Positions of bridges follow the written chain, without caps; N, C: chain ends. Non-standard residues stand in square brackets, D forms with d. Residues, ends and D or L forms follow the SMILES beside them. No end group written: not given here. Cha = N[C@@H](CC1CCCCC1)C(=O)O; pGlu = O=C1CC[C@@H](C(=O)O)N1

Columns and labels:
conscious rabbits = test: Blood pressure and heart rate in conscious rabbits, intravenous infusion dose-response (Example 8); conditions: for recovery of MAP, in words: 2 hours after infusion; for recovery of MAP from the hypotension, in words: one hour after the end of infusion
[1] = target: T1, Natriuretic Peptide Receptor-A (NPR-A) signaling in MDCK cells (Canis lupus familiaris, UniProt A0A8I3MHU3); assay type: cell-based, canine; conditions: stimulation of cGMP accumulation in MDCK cells; for EC50: read-out: EC50 (M) ± Standard Error
T1 sequence (A0A8I3MHU3 32-1060): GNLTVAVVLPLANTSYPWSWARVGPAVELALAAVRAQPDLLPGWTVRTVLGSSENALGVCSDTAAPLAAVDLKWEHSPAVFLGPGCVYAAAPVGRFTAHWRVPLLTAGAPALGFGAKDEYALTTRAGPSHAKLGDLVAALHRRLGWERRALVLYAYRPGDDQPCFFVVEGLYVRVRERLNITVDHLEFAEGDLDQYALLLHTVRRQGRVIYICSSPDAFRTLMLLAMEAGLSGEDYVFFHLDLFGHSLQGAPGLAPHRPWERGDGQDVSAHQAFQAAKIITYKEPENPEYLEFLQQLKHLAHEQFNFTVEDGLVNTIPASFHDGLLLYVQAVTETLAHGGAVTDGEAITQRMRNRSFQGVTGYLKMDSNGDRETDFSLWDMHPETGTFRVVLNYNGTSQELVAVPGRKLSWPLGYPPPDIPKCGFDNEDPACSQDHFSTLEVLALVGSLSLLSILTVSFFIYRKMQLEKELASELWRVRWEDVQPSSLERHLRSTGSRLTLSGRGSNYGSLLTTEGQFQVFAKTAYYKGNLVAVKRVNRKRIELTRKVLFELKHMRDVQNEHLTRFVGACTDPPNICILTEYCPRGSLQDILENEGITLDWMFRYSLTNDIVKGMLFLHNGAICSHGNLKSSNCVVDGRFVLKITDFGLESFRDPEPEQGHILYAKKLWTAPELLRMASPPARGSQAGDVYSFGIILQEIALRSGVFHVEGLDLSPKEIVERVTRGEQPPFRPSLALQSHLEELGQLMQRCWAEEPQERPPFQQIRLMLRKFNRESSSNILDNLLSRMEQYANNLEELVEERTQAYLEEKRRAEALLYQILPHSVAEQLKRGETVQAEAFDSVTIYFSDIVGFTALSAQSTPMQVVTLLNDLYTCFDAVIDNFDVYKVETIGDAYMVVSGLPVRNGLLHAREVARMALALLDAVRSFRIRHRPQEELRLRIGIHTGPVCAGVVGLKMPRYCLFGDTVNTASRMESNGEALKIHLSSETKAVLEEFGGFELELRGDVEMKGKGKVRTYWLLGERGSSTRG

[2] = tested on: denuded aortic rings, GC A receptor; test: Relaxation of noradrenaline constricted endothelium-denuded aortic rings (Example 11); set-up: species or system rat; conditions: GC-A mediated
Experimental: Male Sprague Dawley rats were killed and the descending thoracic aorta rapidly removed and flushed with physiological solution. After being cleared of adhering fat and connective tissue, 5 mm rings were mounted under 10 g resting tension, between two stainless steel hooks, in organ baths (37° C.) containing carbogenated (95% O2 and 5% CO2) physiological salt solution of the following composition (mM): NaCl, 118.4; NaHCO3, 25; glucose, 11; KCl, 4.7; MgSO4, 1.2; KH2PO4, 1.2 and CaCl2, 2.5. The lower hook was attached to a tissue holder and the upper hook to a force displacement transducer (Grass FTO3). Where indicated endothelial cells were removed by gentle rubbing of the intimal surface with a wire. To confirm the presence or absence of endothelial cells, tissues were precontracted with a sub-maximal concentration of phenylephrine (0.3 μM) and the response to acetylcholine (ACh, 10 μM) observed. Ach-induced relaxation greater than 80% of maximum indicated the presence of endothelium; whereas Ach-induced relaxation less than 10% indicated the absence of endothelium. Ring preparations under resting tension were conditioned by two contraction/relaxation cycles with 40 mM KCl, contracted by a third application of 40 mM KCl and then relaxed with different doses of the venom peptides. Responses were expressed as a percentage relaxation of the precontraction by KCl.
In addition to the peptides tested in example 3, a series of 13 analogs corresponding to the 2a, 2b and 2c grouping of peptides were examined for their ability to dilate noradrenaline constricted aortic rings. The degree of constriction was expressed as a percentage of the KCl induced constriction. The aortic rings were prepared in a manner similar to the method described in example 3. […]. In each case there were at least 3 separate aortic rings tested per peptide and all were denuded of endothelium to ensure responses were confined to the GC A receptor.

[3] = after a 2 hour recovery period, Table 10B
[4] = final dose, Table 10B, groups 2B and 2C
[5] = after 1 hour recovery period, Table 10A
[6] = highest dose, Table 10A, groups 1, 2A and 3

Molecule | recovery of MAP, in words (conscious rabbits) | MAP at final dose (conscious rabbits; Table 10B) [mm Hg] | Recovery (MAP) (conscious rabbits; [3]) [mm Hg] | Recovery Delta SED (MAP) (conscious rabbits; [3]) [mm Hg] | Treatment Effect, change of mean blood pressure during the infusion (conscious rabbits; [4]) [mm Hg] | −Log10 EC50 (pEC50) ± Standard Error [1] | EC50 [1] [M] | Mean relaxation SEM of denuded aortic rings expressed as % of KCl response [2] [%] | Recovery (MAP) (conscious rabbits; [5]) [mm Hg] | Recovery Delta SED (MAP) (conscious rabbits; [5]) [mm Hg] | reduction of MAP compared to vehicle, in words (conscious rabbits; highest dose) | MAP at final dose (conscious rabbits; highest dose, Table 10A) [mm Hg] | Treatment Effect, change of mean blood pressure during the infusion (conscious rabbits; [6]) [mm Hg] | recovery of MAP from the hypotension, in words (conscious rabbits)
CC[C@H](C)[C@H](NC(=O)[C@H](CCCCN)NC(=O)[C@H](CO)NC(=O)[C@H](CC(=O)O)NC(=O)[C@@H](N)CO)C(=O)NCC(=O)N[C@@H](C)C(=O)NCC(=O)N[C@H]1CSSC[C@@H](C(=O)N[C@@H](CC(N)=O)C(=O)N[C@@H](CCCNC(=N)N)C(=O)N[C@H](C(=O)N[C@@H](CCSC)C(=O)N[C@@H](CCC(N)=O)C(=O)N[C@@H](CC(N)=O)C(=O)N2CCC[C@H]2C(=O)N2CCC[C@H]2C(=O)N[C@@H](CCCCN)C(=O)N[C@@H](CCCCN)C(=O)N[C@@H](Cc2ccccc2)C(=O)N[C@@H](CO)C(=O)NCC(=O)N[C@@H](CCC(=O)O)C(=O)O)[C@@H](C)CC)NC(=O)CNC(=O)[C@H](CC(C)C)NC(=O)CNC(=O)[C@H](CO)NC(=O)[C@H](C(C)C)NC(=O)[C@H](CO)NC(=O)CNC(=O)[C@H]([C@@H](C)CC)NC(=O)[C@H](CCCNC(=N)N)NC(=O)[C@H](CC(=O)O)NC(=O)[C@H](CC(C)C)NC(=O)[C@@H]2CCCN2C(=O)[C@H](Cc2ccccc2)NC(=O)CNC(=O)[C@H](Cc2ccccc2)NC1=O [TNPc A7] (H-SDSKIGAGCFGFPLDRIGSVSGLGCNRIMQNPPKKFSGE-OH; disulfide 9-25; N-terminus assumed) | did not recover after 2 hours | 64.0 | 71.3 | 7.3 ± 2.9 | −11.2 | 6.867 ± 0.1915 | 1.61e-07 | 32.9 ± 4.5 | – | – | – | – | – | –
CC[C@H](C)[C@H](NC(=O)[C@H](CCCCN)NC(=O)[C@H](CO)NC(=O)[C@H](CC(=O)O)NC(=O)[C@@H](N)CO)C(=O)NCC(=O)N[C@@H](CC(N)=O)C(=O)NCC(=O)N[C@H]1CSSC[C@@H](C(=O)N[C@@H](CC(N)=O)C(=O)N[C@@H](CCCNC(=N)N)C(=O)N[C@H](C(=O)N[C@@H](CCSC)C(=O)N[C@@H](CCC(N)=O)C(=O)N[C@@H](CC(N)=O)C(=O)N2CCC[C@H]2C(=O)N2CCC[C@H]2C(=O)N[C@@H](CCCCN)C(=O)N[C@@H](CCCCN)C(=O)N[C@@H](Cc2ccccc2)C(=O)N[C@@H](CO)C(=O)NCC(=O)N[C@@H](CCC(=O)O)C(=O)O)[C@@H](C)CC)NC(=O)CNC(=O)[C@H](CC(C)C)NC(=O)CNC(=O)[C@H](CO)NC(=O)[C@H](C(C)C)NC(=O)[C@H](CO)NC(=O)CNC(=O)[C@H]([C@@H](C)CC)NC(=O)[C@H](CCCNC(=N)N)NC(=O)[C@H](CC(=O)O)NC(=O)[C@H](CC(C)C)NC(=O)[C@@H]2CCCN2C(=O)[C@H](Cc2ccccc2)NC(=O)CNC(=O)[C@H](CC2CCCCC2)NC1=O [TNPc Cha-10] (H-SDSKIGNGC[Cha]GFPLDRIGSVSGLGCNRIMQNPPKKFSGE-OH; disulfide 9-25; N-terminus assumed) | partially recovered | 67.3 | 76.5 | 9.1 ± 3.9 | −10.8 | 7.84 | 1.44e-08 | 64.2 ± 4.2 | – | – | – | – | – | –
CC[C@H](C)[C@@H]1NC(=O)[C@H](CCCNC(=N)N)NC(=O)[C@H](CC(=O)O)NC(=O)[C@H](CC(C)C)NC(=O)[C@@H]2CCCN2C(=O)[C@H](Cc2ccccc2)NC(=O)CNC(=O)[C@H](Cc2ccccc2)NC(=O)[C@@H](NC(=O)CNC(=O)[C@H](CO)NC(=O)CNC(=O)[C@H](CCC(N)=O)NC(=O)[C@@H](NC(=O)[C@H](CCSC)NC(=O)[C@H](CCCCN)NC(=O)[C@@H]2CCCN2C(=O)[C@@H](N)CO)C(C)C)CSSC[C@@H](C(=O)N[C@@H](CC(N)=O)C(=O)N[C@@H](CCCNC(=N)N)C(=O)N[C@H](C(=O)N[C@@H](CCSC)C(=O)N[C@@H](CCC(N)=O)C(=O)N[C@@H](CC(N)=O)C(=O)N2CCC[C@H]2C(=O)N2CCC[C@H]2C(=O)N[C@@H](CCCCN)C(=O)N[C@@H](CCCCN)C(=O)N[C@@H](Cc2ccccc2)C(=O)N[C@@H](CO)C(=O)NCC(=O)N[C@@H](CCC(=O)O)C(=O)O)[C@@H](C)CC)NC(=O)CNC(=O)[C@H](CC(C)C)NC(=O)CNC(=O)[C@H](CO)NC(=O)[C@H](C(C)C)NC(=O)[C@H](CO)NC(=O)CNC1=O [TNPc BTT] (H-SPKMVQGSGCFGFPLDRIGSVSGLGCNRIMQNPPKKFSGE-OH; disulfide 10-26; N-terminus assumed) | did not recover after 2 hours | 63.4 | 65.4 | 2.1 ± 1.5 | −10.8 | 8.177 ± 0.1049 | 7.06e-09 | 62.1 ± 6.6 | – | – | – | – | – | –
SDSKIGNGCFGFPLDRIGSVSGLGCNRPMQNPPKKFSGE (A portion of a natriuretic peptide) [TNPc I28P] | – | – | – | – | – | – | – | 52.6 ± 5.0 | 66.6 | 1.2 ± 2.4 | did significantly reduce MAP | 65.4 | −9.1 | did recover from the hypotension
SDSKIGNGCFGFPLDRIGSVSGLGCNRIMQNRPKKFSGE (A portion of a natriuretic peptide) [TNPc P32R] | – | – | – | – | – | – | – | 66.4 ± 8.8 | 57.6 | 0.1 ± 1.4 | – | 57.5 | −19.9 | did recover from the hypotension
ZSDSKIGNGCFGFPLDRIGSVSGLGCNRIMQNPPKKFSGE ([pGlu]SDSKIGNGCFGFPLDRIGSVSGLGCNRIMQNPPKKFSGE; disulfide 10-26 (inferred); not fully specified; ends not checked) [TNPc Z0] | partially recovered | 63.3 | 72.2 | 9.0 ± 1.0 | −11.0 | – | – | 61.5 ± 5.5 | – | – | – | – | – | –
